# The NIST ThermoML archive (doi:10.1021/je200637v)
# Numbers after ± are expanded uncertainties.
# Assay: activity coefficient (dimensionless); of the first substance listed, at infinite dilution; xn = mol fraction of the nth substance listed
# Conditions: Liquid, Chromatography, x1 = 0
Structure (SMILES),activity coefficient (322.85 K),activity coefficient (332.65 K),activity coefficient (343.15 K)
C=O [methanal] + CCCCCCCCCC[N+](C)(C)C.O=S(=O)([N-]S(=O)(=O)C(F)(F)F)C(F)(F)F,0.09 ± 0.04,0.1 ± 0.04,0.11 ± 0.04
C=O [methanal] + CCCCCCCC[N+](C)(C)C.O=S(=O)([N-]S(=O)(=O)C(F)(F)F)C(F)(F)F,0.1 ± 0.04,0.11 ± 0.04,0.12 ± 0.04
C=O [methanal] + CCCCCCCC[N+](CCCCCCCC)(CCCCCCCC)CCCCCCCC.O=S(=O)([N-]S(=O)(=O)C(F)(F)F)C(F)(F)F,0.07,0.08,0.09 ± 0.04
C=O [methanal] + CCCC[N+](C)(CCCC)CCCC.O=S(=O)([N-]S(=O)(=O)C(F)(F)F)C(F)(F)F,0.11 ± 0.04,0.12 ± 0.04,0.13 ± 0.04
CO [methanol] + CCCCCCCCCC[N+](C)(C)C.O=S(=O)([N-]S(=O)(=O)C(F)(F)F)C(F)(F)F,0.79 ± 0.03,0.91 ± 0.03,0.66 ± 0.03
CO [methanol] + CCCCCCCC[N+](C)(C)C.O=S(=O)([N-]S(=O)(=O)C(F)(F)F)C(F)(F)F,0.92 ± 0.03,0.78 ± 0.03,0.81 ± 0.03
CO [methanol] + CCCCCCCC[N+](CCCCCCCC)(CCCCCCCC)CCCCCCCC.O=S(=O)([N-]S(=O)(=O)C(F)(F)F)C(F)(F)F,0.65 ± 0.03,0.76 ± 0.03,0.82 ± 0.03
CO [methanol] + CCCC[N+](C)(CCCC)CCCC.O=S(=O)([N-]S(=O)(=O)C(F)(F)F)C(F)(F)F,0.96 ± 0.03,0.75 ± 0.03,0.88 ± 0.03
CC1CCCCC1 [methylcyclohexane] + CCCCCCCCCC[N+](C)(C)C.O=S(=O)([N-]S(=O)(=O)C(F)(F)F)C(F)(F)F,3.57 ± 0.16,3.57 ± 0.16,3.39 ± 0.15
CC1CCCCC1 [methylcyclohexane] + CCCCCCCC[N+](C)(C)C.O=S(=O)([N-]S(=O)(=O)C(F)(F)F)C(F)(F)F,5.23 ± 0.24,4.93 ± 0.23,4.6 ± 0.21
CC1CCCCC1 [methylcyclohexane] + CCCCCCCC[N+](CCCCCCCC)(CCCCCCCC)CCCCCCCC.O=S(=O)([N-]S(=O)(=O)C(F)(F)F)C(F)(F)F,1.07 ± 0.03,1.06 ± 0.03,1.05 ± 0.03
CC1CCCCC1 [methylcyclohexane] + CCCC[N+](C)(CCCC)CCCC.O=S(=O)([N-]S(=O)(=O)C(F)(F)F)C(F)(F)F,5.92 ± 0.27,5.91 ± 0.27,5.58 ± 0.26
CC1CCCC1 [methylcyclopentane] + CCCCCCCCCC[N+](C)(C)C.O=S(=O)([N-]S(=O)(=O)C(F)(F)F)C(F)(F)F,2.99 ± 0.14,2.99 ± 0.14,2.83 ± 0.13
CC1CCCC1 [methylcyclopentane] + CCCCCCCC[N+](C)(C)C.O=S(=O)([N-]S(=O)(=O)C(F)(F)F)C(F)(F)F,4.18 ± 0.19,3.95 ± 0.18,3.67 ± 0.17
CC1CCCC1 [methylcyclopentane] + CCCCCCCC[N+](CCCCCCCC)(CCCCCCCC)CCCCCCCC.O=S(=O)([N-]S(=O)(=O)C(F)(F)F)C(F)(F)F,0.98 ± 0.03,0.97 ± 0.03,0.97 ± 0.03
CC1CCCC1 [methylcyclopentane] + CCCC[N+](C)(CCCC)CCCC.O=S(=O)([N-]S(=O)(=O)C(F)(F)F)C(F)(F)F,4.75 ± 0.22,4.74 ± 0.22,4.5 ± 0.21
C[N+](=O)[O-] [nitromethane] + CCCCCCCCCC[N+](C)(C)C.O=S(=O)([N-]S(=O)(=O)C(F)(F)F)C(F)(F)F,0.56 ± 0.03,0.58 ± 0.03,0.55 ± 0.03
C[N+](=O)[O-] [nitromethane] + CCCCCCCC[N+](C)(C)C.O=S(=O)([N-]S(=O)(=O)C(F)(F)F)C(F)(F)F,0.6 ± 0.03,0.58 ± 0.03,0.55 ± 0.03
C[N+](=O)[O-] [nitromethane] + CCCCCCCC[N+](CCCCCCCC)(CCCCCCCC)CCCCCCCC.O=S(=O)([N-]S(=O)(=O)C(F)(F)F)C(F)(F)F,0.63 ± 0.03,0.61 ± 0.03,0.59 ± 0.03
C[N+](=O)[O-] [nitromethane] + CCCC[N+](C)(CCCC)CCCC.O=S(=O)([N-]S(=O)(=O)C(F)(F)F)C(F)(F)F,0.65 ± 0.03,0.65 ± 0.03,0.62 ± 0.03
CCCCCCCCC [nonane] + CCCCCCCCCC[N+](C)(C)C.O=S(=O)([N-]S(=O)(=O)C(F)(F)F)C(F)(F)F,8.87 ± 0.41,8.63 ± 0.4,7.61 ± 0.35
CCCCCCCCC [nonane] + CCCCCCCC[N+](C)(C)C.O=S(=O)([N-]S(=O)(=O)C(F)(F)F)C(F)(F)F,15.9 ± 0.74,14.8 ± 0.68,13.4 ± 0.62
